The values that follow are results of earlier work, collected in patent US9050307B2, “Method for the preparation of a levothyroxine solution” (EMP Pharma GmbH, priority 2011, dated 2015).

Each structure is given as a SMILES string.

`N[C@@H](Cc1cc(I)c(Oc2cc(I)c(O)c(I)c2)c(I)c1)C(=O)[O-].[Na+]` [Levothyroxine sodium, Sodium (2S)-2-amino-3-[4-(4-hydroxy-3,5-diiodophenoxy)-3,5-diiodophenyl]propanoate]: the “Solubility in ethanol (96 percent)” value (ethanol (96 percent)) was “slightly soluble”. Where the note is “water”, the Solubility in water result is listed as “very slightly soluble”.
